Test results reported in patent US11452721B2, “Formulations of pimavanserin” (ACADIA Pharmaceuticals Inc., priority 2017, dated 2022).

How the values were obtained:
[1] = Carr's Index (Carr's Compressibility Index), USP <616>/<1174>; format: physicochemical
Experimental: (§1) Carr's Index compares the difference between the bulk density and tapped density of a substance to determine its compressibility. The bulk density and the Carr's Index may be determined in accordance with USP<616> (method for performing Bulk and Tapped Densities, method 1) and USP<1174> (definition of powder flow) respectively.
(§2) Table 1 visualizes that filling of a capsule, in particular a capsule of size 3 or 4 (capsule volumes of 0.30 and 0.21 ml respectively, approximately 120 mg and 85 mg respectively at a bulk density of […]). As evident from Table 1, native pimavanserin (API) would be challenging for a size 3 capsule and not possible for a capsule of size 4 without improving the bulk density (as comparison 85 mg of pimavanserin granulation would require about 0.17 ml compared to 0.29 ml for the native API) and flowability (Carr index is frequently used in pharmaceutical manufacturing as an indication of the flowability of a powder, e.g. 2016 U.S. Pharmacopoeias-National Formulary [USP 35 NF 30]).

[2] = Bulk density according to USP <616> method 1; format: physicochemical
Experimental: as §1, §2
The bulk density of the blended composition is >0.4 g/ml, such as 0.4-0.6 g/ml, such as about 0.5 g/ml determined according to USP <616>, method 1. […]
The bulk density of pimavanserin granulation is >0.4 g/ml, such as 0.4-0.6 g/ml, such as about 0.5 g/ml, determined according to USP <616>, method 1. […]

[3] = Laser light scattering particle size distribution (Malvern Mastersizer 2000); format: physicochemical; conditions: before vs after granulation, FIG. 4/5
Description: The small quantity of water, its application using appropriate water atomization and/or water application rate are important reasons for the improved properties of pimavanserin. […] The actual amount of water to be sprayed at the granulation of pimavanserin may vary from batch to batch (depending on surrounding factors such as humidity, temperature, exact properties of the API batch, etc) but is still consider to be a small amount, e.g. 3-10% w/w based on the dry ingredients. The amount of water and the granulation process disclosed herein is controlled by controlling the impeller energy to achieve the targeted impeller speed. The appropriate impeller speed ensures sufficient mixing and controls the growth of granules. The specific small amount of water needed for each batch is controlled by the power consumption (amperage) of the granulator, i.e., if the amperage is […], additional amounts of water could be sprayed to the granulate in order to obtain pimavanserin having the properties desired in order to pharmaceutically manufacture capsules comprising 5-34 mg pimavanserin. […] The properties are achieved via a manufacturing process that includes granulation, using a suitable granulator, e.g. a high shear granulator, simultaneously spraying the adequate amount of water while mixing, followed by screening, and blending appropriate quantities of excipients. […]

[4] = FT4 Powder Rheology (FT4 Powder Rheometer, ASTM D7891-15); format: physicochemical; conditions: FT4 measurement
Description: In addition to the bulk density and Carr's Index obtained according to USP <616>, method 1, FT4 Powder Rheology was obtained for the API (pimavanserin tartrate) and for the compositions disclosed herein using a FT4 Powder Rheometer according to ASTM D7891-15; Standard Test Method for Shear Testing of Powders Using the Freeman Technology FT4 Powder Rheometer Shear Cell.
As discussed herein above the flowability of the composition has been improved compared to the API (pimavanserin tartrate), which for example can be supported by the Specific Energy (SE) obtained from the FT4 measurements. Specific Energy is a measure of the powder's flowability when unconfined, such as during low stress filling, or low shear blending. The average Specific Energy (SE) for the API is about 10.08+/−0.23 mJ/g.
The FT4 Powder Rheometer was also used as yet another means to compare the bulk density between the API, the granulated pimavanserin and the blended pimavanserin compositions disclosed herein and in the accompanying claims. The bulk density is a conditioned bulk density as obtained by the FT4 measurement, in accordance with ASTM D7891-15; Standard Test Method for Shear Testing of Powders Using the Freeman Technology FT4 Powder Rheometer Shear Cell.
The blended pimavanserin composition used in the herein mention FT4 Powder Rheometry measurements comprised 34 mg pimavanserin, 59 mg microcrystalline cellulose and 1 mg magnesium stearate.

[5] = tested on: DOI ((±)-2,5-dimethoxy-4-iodoamphetamine, a serotonin agonist) induced head twitches; conditions: rat; oral doses of 3 and 10 mg/kg; cited from earlier work
[6] = tested on: hyperactivity induced by the N-methyl-D-aspartate antagonist MK-801; conditions: mice; oral doses of 3 and 10 mg/kg; cited from earlier work

Compound	Carr's Index [1]	volume required by 85 mg ([2]; 85 mg of material, from bulk density) [mL]	Bulk density according to USP <616> ([2]; USP <616> method 1) [g/mL]	particle size distribution D90 [3]	average Flow Rate Index (FRI) [4]	average Specific Energy (SE) [4]	average conditioned bulk density (CBD) ([4]; ASTM D7891-15) [g/mL]	activity in DOI induced head twitches [5]	attenuation of MK-801 induced hyperactivity [6]
pimavanserin tartrate [Native API]	36	0.29	0.294	about 30 μm	1.90±0.01	about 10.08+/−0.23 mJ/g	0.336 ± 0.006		
CC(C)COc1ccc(CNC(=O)N(Cc2ccc(F)cc2)C2CCN(C)CC2)cc1 [Pimavanserin, N-(1-methylpiperidin-4-yl)-N-(4-fluorophenylmethyl)-N′-(4-(2-methylpropyloxy)phenylmethyl)carbamide]								effective	effective
